The results in this text go back to PubChem BioAssay (NCI).

In general, GI50 refers to the concentration that inhibits growth by half. One may read the TGI as the concentration giving total growth inhibition. Read a low TGI as greater sensitivity of the cells.

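Protocol summary: plate cells (96-well), add compound at 5 concentrations, incubate 48 h, interpolate endpoints linearly. The concentration for 50% growth inhibition is given as GI50. TGI denotes the concentration required for complete inhibition of growth.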 Where a SMILES comes first, the peptide text is derived from it. The star is where a group is joined. Cbz = O=C(OCc1ccccc1)*

Among the test systems are MALME-3M melanoma; NCI-H522 lung; SNB-75 CNS; A498 renal; SN12C renal; OVCAR-3 ovarian; HT29 colon; HL-60(TB) leukemia; TK-10 renal; EKVX NSCLC; HOP-62 NSCLC; SK-MEL-28 melanoma.
Common to all, as to experiment: DTP human tumour cell line panel, 48 h

With `COc1ccc(-c2nc(-c3nc4cc(Cl)c(Cl)cc4[nH]3)c3ccccn23)cc1`, the GI50 is 2.51 µM in the test on MALME-3M melanoma; 3.37 µM in the test with NCI-H522 lung; 1.73 µM with SNB-75 CNS; 4.2 µM with A498 renal; above 100 µM with SN12C renal; 3.18 µM with OVCAR-3 ovarian. For the same compound, the GI50 is 4.42 µM in the test with HT29 colon and above 100 µM with HL-60(TB) leukemia. The TGI with MALME-3M melanoma was 5.85 µM; with NCI-H522 lung, 82 µM; with SNB-75 CNS, 3.23 µM; in the test with A498 renal it was above 100 µM; with SN12C renal, above 100 µM; in the test with OVCAR-3 ovarian, above 100 µM. Besides, the TGI in the test with HT29 colon and in the test with HL-60(TB) leukemia was above 100 µM each time.

For the compound `CN(C(=O)Cc1cc(Cl)c(Cl)cc1NC(=O)CCCN)[C@H]1CCCC[C@@H]1N1CCCC1`, the TGI is 31.1 µM in the test with MALME-3M melanoma; 29.8 µM with NCI-H522 lung; above 100 µM in the test on TK-10 renal; above 100 µM with EKVX NSCLC; above 100 µM in the test on HOP-62 NSCLC; 33 µM in the test on SK-MEL-28 melanoma. Further, the TGI in the test on A498 renal is 32.4 µM; in the test on SN12C renal it was above 100 µM; in the test with OVCAR-3 ovarian it was above 100 µM; in the test with HT29 colon, 47.7 µM; in the test with HL-60(TB) leukemia, 52.8 µM.

For the compound `Cc1ccc(S(=O)(=O)N(CC(O)COc2ccccc2)c2c(F)c(F)c(F)c(F)c2F)cc1` (stereo not drawn), the TGI was 53.1 µM in the test with MALME-3M melanoma; 71.1 µM in the test with TK-10 renal; 35.3 µM with EKVX NSCLC; 36.5 µM in the test on SNB-75 CNS; 35.2 µM in the test with HOP-62 NSCLC; 31.6 µM in the test with SK-MEL-28 melanoma. In addition, the TGI with A498 renal came out at 33.2 µM; in the test on SN12C renal, 37.7 µM; in the test with OVCAR-3 ovarian, 38.9 µM; in the test with HT29 colon, 33 µM; in the test on HL-60(TB) leukemia, 42.2 µM.

With `Cc1cc2c3c(c1)S(=O)(=O)c1cc(Cl)ccc1N3CCC2`, the TGI with MALME-3M melanoma, with TK-10 renal, in the test on EKVX NSCLC, in the test on SNB-75 CNS, in the test on HOP-62 NSCLC and with SK-MEL-28 melanoma was above 100 µM throughout. The TGI with A498 renal, with SN12C renal, with OVCAR-3 ovarian, in the test with HT29 colon and in the test on HL-60(TB) leukemia was above 100 µM in each case.

Regarding `CC1=C[C@H](C[C@]2(C)c3c(c4c(C)cccc4oc3=O)O[C@@H]2C)OC1=O`, the TGI was above 100 µM in the test with MALME-3M melanoma; 49.6 µM in the test on NCI-H522 lung; above 100 µM with TK-10 renal; above 100 µM in the test on EKVX NSCLC; above 100 µM with SNB-75 CNS; above 100 µM in the test on HOP-62 NSCLC. For the same compound, the TGI is above 100 µM in the test on A498 renal; above 100 µM in the test on SN12C renal; above 100 µM in the test with OVCAR-3 ovarian; above 100 µM in the test with HT29 colon; 52.5 µM in the test with HL-60(TB) leukemia.

With `OC1CCN2Cc3ccccc3N=C12` (stereo not drawn), the TGI with MALME-3M melanoma, in the test on TK-10 renal, in the test on EKVX NSCLC, in the test on SNB-75 CNS, in the test on HOP-62 NSCLC and in the test on SK-MEL-28 melanoma was above 100 µM each time. Besides, the TGI in the test on A498 renal, in the test with SN12C renal, in the test on OVCAR-3 ovarian, in the test on HT29 colon and in the test on HL-60(TB) leukemia was above 100 µM each time.

On to `CCCSc1ccc2[nH]c(N3C(=O)/C(=C/c4ccc(O)c(OC)c4)N=C3c3ccccc3)cc2c1`, for which the TGI was 84 µM in the test with MALME-3M melanoma; 24.3 µM with NCI-H522 lung; 67.4 µM in the test with EKVX NSCLC; above 100 µM with SNB-75 CNS; above 100 µM in the test with HOP-62 NSCLC; above 100 µM with SK-MEL-28 melanoma. The TGI in the test on A498 renal was 93 µM; in the test with SN12C renal, 50.4 µM; with OVCAR-3 ovarian, above 100 µM; in the test on HT29 colon, 88.9 µM; in the test on HL-60(TB) leukemia, 11.6 µM.

Regarding `COC(=O)C1=C(C(=O)OC)C23CC4CCC2(C(=O)C1O3)C4(C)C` (stereo not drawn), the TGI in the test on MALME-3M melanoma is above 100 µM; with NCI-H522 lung it was 48.8 µM; in the test with TK-10 renal, above 100 µM; with SNB-75 CNS, above 100 µM; with SK-MEL-28 melanoma, above 100 µM; with A498 renal, above 100 µM. The TGI in the test with SN12C renal was above 100 µM; in the test on OVCAR-3 ovarian it was above 100 µM; with HT29 colon, above 100 µM; with HL-60(TB) leukemia, 52.6 µM.

Regarding `CCOC(=O)CCC(NC(=O)C(CC(=O)OC)NC(=O)OCc1ccccc1)C(=O)NC(CC(=O)OC)C(=O)NC(CCC(=O)OCC)C(=O)NC(CC(=O)OC)C(=O)NC(CCC(=O)OCC)C(=O)NC(CC(=O)OCC)C(=O)OCC` (stereo not drawn) (Cbz-D(OMe)E(OEt)D(OMe)E(OEt)D(OMe)E(OEt)D(OEt)-OEt; configuration not given here), the TGI in the test with MALME-3M melanoma, with NCI-H522 lung, with TK-10 renal, with HOP-62 NSCLC, in the test on A498 renal and with SN12C renal was above 100 µM throughout. The TGI in the test with OVCAR-3 ovarian, with HT29 colon and in the test with HL-60(TB) leukemia was above 100 µM throughout.

`O=NN(CC1(O)OCC(O)C(O)C1O)C(Cc1c[nH]c2ccccc12)C(=O)O` (stereo not drawn): the TGI in the test with MALME-3M melanoma, in the test on NCI-H522 lung, with TK-10 renal, in the test with EKVX NSCLC, in the test with SNB-75 CNS and in the test with HOP-62 NSCLC was above 100 µM each time. The TGI in the test with SK-MEL-28 melanoma, with A498 renal, in the test with OVCAR-3 ovarian, in the test with HT29 colon and in the test with HL-60(TB) leukemia was above 100 µM throughout.

For `CSC(=Nc1ccc([N+](=O)[O-])cc1C#N)NC(=O)c1ccccc1`, the TGI in the test on MALME-3M melanoma, with TK-10 renal, in the test with EKVX NSCLC, with SNB-75 CNS, in the test with HOP-62 NSCLC and with SK-MEL-28 melanoma was above 100 µM in each case. The TGI in the test with A498 renal, in the test on SN12C renal, with OVCAR-3 ovarian, in the test on HT29 colon and with HL-60(TB) leukemia was above 100 µM throughout.
